The record followed here is patent US9636418B2 (priority 2013, dated 2017).

Holding throughout (assay): cell-based
One assay has as its target hNav1.7 (Homo sapiens, UniProt Q15858). The note with it: IonWorks Quattro; read-out: IC50 Nav1.7. In general terms: Patch clamp records ionic current or voltage across a cell membrane.
Another assay concerns the target hNav1.5 (Homo sapiens, UniProt Q14524). The note with it: IonWorks Quattro; read-out: IC50 Nav1.5.
The next assay has as its target hNav1.4 (Homo sapiens, UniProt P35499). The note with it: IonWorks Quattro; read-out: IC50 Nav1.4.
Another assay deals with hNav1.3 (Homo sapiens, UniProt Q9NY46). The note with it: IonWorks Quattro; read-out: IC50 Nav1.3.

The structures appear in SMILES notation. Several values for one entry are separate records, joined by “and”; a condition that tells them apart may be missing. Identical values can stand only once. Bounds are passed on as bounds.

The term IC50 denotes the concentration at which inhibition is half-maximal.

hNav1.3, sequence (Q9NY46 whole entry): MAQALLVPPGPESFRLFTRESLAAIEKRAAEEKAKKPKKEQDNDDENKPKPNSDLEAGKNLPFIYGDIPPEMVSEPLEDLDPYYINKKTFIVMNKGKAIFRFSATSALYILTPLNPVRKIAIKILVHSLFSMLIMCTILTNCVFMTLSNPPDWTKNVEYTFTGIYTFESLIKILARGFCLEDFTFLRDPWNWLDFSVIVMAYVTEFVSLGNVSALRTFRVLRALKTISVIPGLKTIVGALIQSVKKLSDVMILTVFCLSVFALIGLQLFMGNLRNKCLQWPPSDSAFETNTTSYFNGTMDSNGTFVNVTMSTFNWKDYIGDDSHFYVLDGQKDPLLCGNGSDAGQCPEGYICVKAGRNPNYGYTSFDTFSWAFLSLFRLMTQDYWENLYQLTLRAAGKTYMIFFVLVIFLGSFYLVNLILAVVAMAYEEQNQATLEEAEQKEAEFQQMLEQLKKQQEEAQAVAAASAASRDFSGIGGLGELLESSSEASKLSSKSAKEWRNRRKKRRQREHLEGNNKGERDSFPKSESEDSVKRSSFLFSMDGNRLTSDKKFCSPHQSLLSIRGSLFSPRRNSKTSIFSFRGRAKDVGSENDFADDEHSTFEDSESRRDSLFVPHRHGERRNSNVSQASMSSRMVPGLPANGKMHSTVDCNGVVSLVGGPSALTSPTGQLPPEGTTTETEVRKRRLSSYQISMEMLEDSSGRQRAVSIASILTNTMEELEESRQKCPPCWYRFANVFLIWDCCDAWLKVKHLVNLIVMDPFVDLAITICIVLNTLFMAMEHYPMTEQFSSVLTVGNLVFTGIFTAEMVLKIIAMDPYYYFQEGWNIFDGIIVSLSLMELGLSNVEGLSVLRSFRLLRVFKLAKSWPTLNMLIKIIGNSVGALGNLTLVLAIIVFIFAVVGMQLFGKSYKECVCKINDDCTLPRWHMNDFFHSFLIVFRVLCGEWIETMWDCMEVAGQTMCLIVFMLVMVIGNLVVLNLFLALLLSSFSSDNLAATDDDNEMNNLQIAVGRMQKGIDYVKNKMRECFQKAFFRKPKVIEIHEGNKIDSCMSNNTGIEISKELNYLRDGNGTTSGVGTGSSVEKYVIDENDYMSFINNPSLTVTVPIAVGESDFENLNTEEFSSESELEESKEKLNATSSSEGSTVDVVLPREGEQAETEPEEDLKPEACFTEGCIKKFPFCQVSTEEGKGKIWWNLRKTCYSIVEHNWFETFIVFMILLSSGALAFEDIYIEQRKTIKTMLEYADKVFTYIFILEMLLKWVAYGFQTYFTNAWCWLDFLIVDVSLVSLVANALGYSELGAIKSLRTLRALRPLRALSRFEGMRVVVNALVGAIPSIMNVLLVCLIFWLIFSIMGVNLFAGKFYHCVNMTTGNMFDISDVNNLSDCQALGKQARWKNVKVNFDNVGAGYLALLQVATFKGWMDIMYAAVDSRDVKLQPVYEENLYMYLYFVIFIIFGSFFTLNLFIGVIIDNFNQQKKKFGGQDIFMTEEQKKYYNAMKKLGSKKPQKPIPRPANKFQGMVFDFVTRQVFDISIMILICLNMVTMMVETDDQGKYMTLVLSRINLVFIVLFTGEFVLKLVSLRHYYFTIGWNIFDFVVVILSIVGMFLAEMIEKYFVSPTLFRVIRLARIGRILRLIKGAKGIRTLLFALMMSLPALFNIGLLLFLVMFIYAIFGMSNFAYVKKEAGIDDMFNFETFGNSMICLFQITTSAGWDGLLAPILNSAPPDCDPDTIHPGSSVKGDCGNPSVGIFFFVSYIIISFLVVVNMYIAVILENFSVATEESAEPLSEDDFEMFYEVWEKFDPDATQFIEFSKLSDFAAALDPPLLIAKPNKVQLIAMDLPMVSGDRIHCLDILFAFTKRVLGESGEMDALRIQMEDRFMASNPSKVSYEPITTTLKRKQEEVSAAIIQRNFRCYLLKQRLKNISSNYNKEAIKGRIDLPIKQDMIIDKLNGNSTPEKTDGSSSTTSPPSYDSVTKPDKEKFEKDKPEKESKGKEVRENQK
hNav1.5, sequence (Q14524 whole entry): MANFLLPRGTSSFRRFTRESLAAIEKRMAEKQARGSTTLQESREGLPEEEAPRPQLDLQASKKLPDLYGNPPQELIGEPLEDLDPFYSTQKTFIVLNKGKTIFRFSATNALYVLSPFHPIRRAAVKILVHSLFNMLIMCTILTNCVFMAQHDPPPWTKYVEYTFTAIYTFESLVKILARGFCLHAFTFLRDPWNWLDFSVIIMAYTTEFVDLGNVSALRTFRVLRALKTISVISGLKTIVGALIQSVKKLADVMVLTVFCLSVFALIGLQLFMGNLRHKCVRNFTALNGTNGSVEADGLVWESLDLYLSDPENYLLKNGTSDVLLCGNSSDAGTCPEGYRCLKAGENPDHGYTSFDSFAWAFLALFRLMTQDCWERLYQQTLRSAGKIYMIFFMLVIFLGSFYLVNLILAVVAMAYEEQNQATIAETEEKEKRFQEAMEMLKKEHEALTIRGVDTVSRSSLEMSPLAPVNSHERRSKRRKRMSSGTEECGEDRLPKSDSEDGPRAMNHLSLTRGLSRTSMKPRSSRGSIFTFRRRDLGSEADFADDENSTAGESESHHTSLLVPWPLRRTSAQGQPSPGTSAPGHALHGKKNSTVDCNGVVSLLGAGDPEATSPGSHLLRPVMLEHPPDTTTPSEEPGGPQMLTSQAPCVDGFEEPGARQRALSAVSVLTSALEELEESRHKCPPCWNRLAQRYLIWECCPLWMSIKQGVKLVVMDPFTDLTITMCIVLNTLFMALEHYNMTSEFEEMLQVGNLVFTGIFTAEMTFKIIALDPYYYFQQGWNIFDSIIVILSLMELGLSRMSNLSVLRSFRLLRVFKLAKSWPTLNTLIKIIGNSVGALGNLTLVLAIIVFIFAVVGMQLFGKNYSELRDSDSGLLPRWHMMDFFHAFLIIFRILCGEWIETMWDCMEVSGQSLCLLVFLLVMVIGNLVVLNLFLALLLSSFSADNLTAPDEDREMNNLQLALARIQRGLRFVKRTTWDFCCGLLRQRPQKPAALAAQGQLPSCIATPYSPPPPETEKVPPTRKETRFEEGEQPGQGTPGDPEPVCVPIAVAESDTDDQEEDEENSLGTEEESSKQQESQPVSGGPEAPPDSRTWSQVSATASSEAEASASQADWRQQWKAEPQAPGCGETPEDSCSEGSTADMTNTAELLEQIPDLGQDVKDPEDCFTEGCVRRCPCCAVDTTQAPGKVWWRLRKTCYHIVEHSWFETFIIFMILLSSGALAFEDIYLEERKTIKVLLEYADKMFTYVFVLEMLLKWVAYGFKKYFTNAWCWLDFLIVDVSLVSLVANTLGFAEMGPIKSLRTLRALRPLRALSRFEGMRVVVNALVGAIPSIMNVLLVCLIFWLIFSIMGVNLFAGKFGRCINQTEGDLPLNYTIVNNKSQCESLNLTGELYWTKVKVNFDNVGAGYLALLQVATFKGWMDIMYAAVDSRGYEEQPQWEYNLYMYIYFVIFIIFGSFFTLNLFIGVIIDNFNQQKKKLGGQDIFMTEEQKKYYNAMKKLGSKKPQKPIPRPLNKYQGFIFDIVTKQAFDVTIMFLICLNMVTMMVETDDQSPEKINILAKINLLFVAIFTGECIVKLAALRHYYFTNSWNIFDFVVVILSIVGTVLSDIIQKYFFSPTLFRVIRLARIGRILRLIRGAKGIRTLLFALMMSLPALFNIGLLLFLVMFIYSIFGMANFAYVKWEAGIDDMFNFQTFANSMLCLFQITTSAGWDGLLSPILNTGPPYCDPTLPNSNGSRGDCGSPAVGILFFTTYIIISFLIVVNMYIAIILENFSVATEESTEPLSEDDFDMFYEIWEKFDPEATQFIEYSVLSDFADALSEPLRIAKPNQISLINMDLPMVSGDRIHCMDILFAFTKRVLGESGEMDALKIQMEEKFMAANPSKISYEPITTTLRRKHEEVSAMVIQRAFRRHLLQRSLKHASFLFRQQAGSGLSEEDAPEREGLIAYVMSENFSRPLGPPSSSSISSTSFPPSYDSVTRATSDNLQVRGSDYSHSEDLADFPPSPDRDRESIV

`CC[C@H](C)[C@H](NC(=O)[C@H](Cc1ccc(O)cc1)NC(=O)[C@H](CCCCN)NC(=O)[C@H](CCCNC(=N)N)NC(=O)[C@@H]1CSSC[C@@H]2NC(=O)[C@H](C)NC(=O)[C@H](CCCNC(=N)N)NC(=O)[C@H](CCCCN)NC(=O)[C@H](CO)NC(=O)[C@H](CC(=O)O)NC(=O)[C@@H]3CSSC[C@H](NC(=O)[C@H](CCC(=O)O)NC(=O)[C@H](CC(C)C)NC(=O)CNC(=O)[C@H](CCC(=O)O)NC(=O)[C@H](CSSC[C@H](NC(=O)[C@@H](N)Cc4ccc(O)cc4)C(=O)N[C@@H](CCC(N)=O)C(=O)N[C@@H](CCCCN)C(=O)N[C@@H](Cc4c[nH]c5ccccc45)C(=O)N[C@@H](CCSC)C(=O)N[C@@H](Cc4c[nH]c5ccccc45)C(=O)N[C@@H]([C@@H](C)O)C(=O)N3)NC2=O)C(=O)N[C@@H](CCCCN)C(=O)N[C@@H](CC(C)C)C(=O)N[C@@H](C(C)C)C(=O)N1)C(N)=O` [compound 223]: the IC50 on hNav1.7, at hNav1.5, on hNav1.4 and at hNav1.3 was greater than 5 µM throughout.

`CC[C@H](C)[C@H](NC(=O)[C@H](Cc1ccc(O)cc1)NC(=O)[C@H](CCCCN)NC(=O)[C@H](CCCNC(=N)N)NC(=O)[C@@H]1CSSC[C@@H]2NC(=O)[C@H](C)NC(=O)[C@H](CCCNC(=N)N)NC(=O)[C@H](CCCCN)NC(=O)[C@H](CO)NC(=O)[C@H](CC(=O)O)NC(=O)[C@@H]3CSSC[C@H](NC(=O)[C@H](CCC(=O)O)NC(=O)[C@H](CC(C)C)NC(=O)CNC(=O)[C@H](CCC(=O)O)NC(=O)[C@H](CSSC[C@H](NC(=O)[C@@H](N)Cc4ccc(O)cc4)C(=O)N[C@@H](CCC(N)=O)C(=O)N[C@@H](CCCCN)C(=O)N[C@@H](Cc4c[nH]c5ccccc45)C(=O)N[C@@H](CCSC)C(=O)N[C@@H](Cc4c[nH]c5ccccc45)C(=O)N[C@@H]([C@@H](C)O)C(=O)N3)NC2=O)C(=O)N[C@@H](CCCCN)C(=O)N[C@@H](CC(C)C)C(=O)N[C@@H](CC(C)C)C(=O)N1)C(N)=O` [compound 224]: the IC50 at hNav1.7, at hNav1.5, on hNav1.4 and on hNav1.3 was greater than 5 µM throughout.

As to `CCCC[C@@H]1NC(=O)[C@H](CC(C)C)NC(=O)[C@H](CCCCN)NC(=O)[C@@H]2CSSC[C@@H]3NC(=O)[C@H]([C@@H](C)O)NC(=O)[C@H](Cc4c[nH]c5ccccc45)NC(=O)[C@H](CCSC)NC(=O)[C@H](Cc4c[nH]c5ccccc45)NC(=O)[C@H](CCCCN)NC(=O)[C@H](CCC(N)=O)NC(=O)[C@@H](NC(=O)[C@@H](N)Cc4ccc(O)cc4)CSSC[C@H](NC(=O)[C@H](CSSC[C@@H](C(=O)N[C@@H](CCCNC(=N)N)C(=O)N[C@@H](CCCCN)C(=O)N[C@@H](Cc4ccc(O)cc4)C(=O)N[C@H](C(N)=O)[C@@H](C)CC)NC1=O)NC(=O)[C@H](C)NC(=O)[C@H](CCCNC(=N)N)NC(=O)[C@H](CCCCN)NC(=O)[C@H](CO)NC(=O)[C@H](CC(=O)O)NC3=O)C(=O)N[C@@H](CCC(=O)O)C(=O)NCC(=O)N[C@@H](CC(C)C)C(=O)N[C@@H](CCC(=O)O)C(=O)N2` [compound 225], the IC50 at hNav1.7, on hNav1.5, at hNav1.4 and at hNav1.3 was greater than 5 µM in each case.

For `CCC[C@@H]1NC(=O)[C@H](CC(C)C)NC(=O)[C@H](CCCCN)NC(=O)[C@@H]2CSSC[C@@H]3NC(=O)[C@H]([C@@H](C)O)NC(=O)[C@H](Cc4c[nH]c5ccccc45)NC(=O)[C@H](CCSC)NC(=O)[C@H](Cc4c[nH]c5ccccc45)NC(=O)[C@H](CCCCN)NC(=O)[C@H](CCC(N)=O)NC(=O)[C@@H](NC(=O)[C@@H](N)Cc4ccc(O)cc4)CSSC[C@H](NC(=O)[C@H](CSSC[C@@H](C(=O)N[C@@H](CCCNC(=N)N)C(=O)N[C@@H](CCCCN)C(=O)N[C@@H](Cc4ccc(O)cc4)C(=O)N[C@H](C(N)=O)[C@@H](C)CC)NC1=O)NC(=O)[C@H](C)NC(=O)[C@H](CCCNC(=N)N)NC(=O)[C@H](CCCCN)NC(=O)[C@H](CO)NC(=O)[C@H](CC(=O)O)NC3=O)C(=O)N[C@@H](CCC(=O)O)C(=O)NCC(=O)N[C@@H](CC(C)C)C(=O)N[C@@H](CCC(=O)O)C(=O)N2` [compound 226], the IC50 at hNav1.7, on hNav1.5, at hNav1.4 and on hNav1.3 was greater than 5 µM in each case.

Take `CC[C@H](C)[C@H](NC(=O)[C@H](Cc1ccc(O)cc1)NC(=O)[C@H](CCCCN)NC(=O)[C@H](CCCNC(=N)N)NC(=O)[C@@H]1CSSC[C@@H]2NC(=O)[C@H](C)NC(=O)[C@H](CCCNC(=N)N)NC(=O)[C@H](CCCCN)NC(=O)[C@H](CO)NC(=O)[C@H](CC(=O)O)NC(=O)[C@@H]3CSSC[C@H](NC(=O)[C@H](CCC(=O)O)NC(=O)[C@H](CC(C)C)NC(=O)CNC(=O)[C@H](CCC(=O)O)NC(=O)[C@H](CSSC[C@H](NC(=O)[C@@H](N)Cc4ccc(O)cc4)C(=O)N[C@@H](CCC(N)=O)C(=O)N[C@@H](CCCCN)C(=O)N[C@@H](Cc4c[nH]c5ccccc45)C(=O)N[C@@H](CCSC)C(=O)N[C@@H](Cc4c[nH]c5ccccc45)C(=O)N[C@@H]([C@@H](C)O)C(=O)N3)NC2=O)C(=O)N[C@@H](CCCCN)C(=O)N[C@@H](CC(C)C)C(=O)N[C@@H](CCCCN)C(=O)N1)C(N)=O` [compound 228]: the IC50 is 2.7 µM on hNav1.7, greater than 5 µM on hNav1.5, greater than 5 µM on hNav1.4 and greater than 5 µM at hNav1.3.

In the case of `CC[C@H](C)[C@H](NC(=O)[C@H](Cc1ccc(O)cc1)NC(=O)[C@H](CCCCN)NC(=O)[C@H](CCCNC(=N)N)NC(=O)[C@@H]1CSSC[C@@H]2NC(=O)[C@H](C)NC(=O)[C@H](CCCNC(=N)N)NC(=O)[C@H](CCCCN)NC(=O)[C@H](CO)NC(=O)[C@H](CC(=O)O)NC(=O)[C@@H]3CSSC[C@H](NC(=O)[C@H](CCC(=O)O)NC(=O)[C@H](CC(C)C)NC(=O)CNC(=O)[C@H](CCC(=O)O)NC(=O)[C@H](CSSC[C@H](NC(=O)[C@@H](N)Cc4ccc(O)cc4)C(=O)N[C@@H](CCC(N)=O)C(=O)N[C@@H](CCCCN)C(=O)N[C@@H](Cc4c[nH]c5ccccc45)C(=O)N[C@@H](CCSC)C(=O)N[C@@H](Cc4c[nH]c5ccccc45)C(=O)N[C@@H]([C@@H](C)O)C(=O)N3)NC2=O)C(=O)N[C@@H](CCCCN)C(=O)N[C@@H](CC(C)C)C(=O)N[C@@H](CC(N)=O)C(=O)N1)C(N)=O` [compound 229], the half-inhibitory concentration (IC50) on hNav1.7, at hNav1.5, at hNav1.4 and at hNav1.3 was greater than 5 µM each time.

As to `CSCC[C@@H]1NC(=O)[C@H](Cc2c[nH]c3ccccc23)NC(=O)[C@H](CCCCN)NC(=O)[C@H](CCC(N)=O)NC(=O)[C@@H](NC(=O)[C@@H](N)Cc2ccc(O)cc2)CSSC[C@@H]2NC(=O)[C@@H]3CSSC[C@@H](C(=O)N[C@@H](CCCNC(=N)N)C(=O)N[C@@H](CCCCN)C(=O)N[C@@H](Cc4ccc(O)cc4)C(=O)N[C@@H](CCCNC(N)=O)C(N)=O)NC(=O)[C@H](Cc4c[nH]c5ccccc45)NC(=O)[C@H](CC(C)C)NC(=O)[C@H](CCCCN)NC(=O)[C@H](CSSC[C@H](NC(=O)[C@H]([C@@H](C)O)NC(=O)[C@H](Cc4c[nH]c5ccccc45)NC1=O)C(=O)N[C@@H](CC(=O)O)C(=O)N[C@@H](CO)C(=O)N[C@@H](CCCCN)C(=O)N[C@@H](CCCNC(=N)N)C(=O)N[C@@H](C)C(=O)N3)NC(=O)[C@H](CCC(=O)O)NC(=O)[C@H](CC(C)C)NC(=O)CNC(=O)[C@H](CCC(=O)O)NC2=O` [compound 241], the IC50 is 1.2 µM at hNav1.7, greater than 5 µM on hNav1.5, greater than 5 µM on hNav1.4 and greater than 5 µM on hNav1.3.

For the molecule `CSCC[C@@H]1NC(=O)[C@H](Cc2c[nH]c3ccccc23)NC(=O)[C@H](CCCCN)NC(=O)[C@H](CCC(N)=O)NC(=O)[C@@H](NC(=O)[C@@H](N)Cc2ccc(O)cc2)CSSC[C@@H]2NC(=O)[C@@H]3CSSC[C@@H](C(=O)N[C@@H](CCCNC(=N)N)C(=O)N[C@@H](CCCCN)C(=O)N[C@@H](Cc4ccc(O)cc4)C(=O)N[C@@H](CCCCN)C(N)=O)NC(=O)[C@H](Cc4c[nH]c5ccccc45)NC(=O)[C@H](CC(C)C)NC(=O)[C@H](CCCCN)NC(=O)[C@H](CSSC[C@H](NC(=O)[C@H]([C@@H](C)O)NC(=O)[C@H](Cc4c[nH]c5ccccc45)NC1=O)C(=O)N[C@@H](CC(=O)O)C(=O)N[C@@H](CO)C(=O)N[C@@H](CCCCN)C(=O)N[C@@H](CCCNC(=N)N)C(=O)N[C@@H](C)C(=O)N3)NC(=O)[C@H](CCC(=O)O)NC(=O)[C@H](CC(C)C)NC(=O)CNC(=O)[C@H](CCC(=O)O)NC2=O` [compound 242], the half-inhibitory concentration (IC50) is 0.45 µM and 0.63 µM on hNav1.7; greater than 5 µM at hNav1.5; greater than 5 µM at hNav1.4; greater than 5 µM at hNav1.3.

Consider `CSCC[C@@H]1NC(=O)[C@H](Cc2c[nH]c3ccccc23)NC(=O)[C@H](CCCCN)NC(=O)[C@H](CCC(N)=O)NC(=O)[C@@H](NC(=O)[C@@H](N)Cc2ccc(O)cc2)CSSC[C@@H]2NC(=O)[C@@H]3CSSC[C@@H](C(=O)N[C@@H](CCCNC(=N)N)C(=O)N[C@@H](CCCCN)C(=O)N[C@@H](Cc4ccc(O)cc4)C(=O)N[C@@H](CC(N)=O)C(N)=O)NC(=O)[C@H](Cc4c[nH]c5ccccc45)NC(=O)[C@H](CC(C)C)NC(=O)[C@H](CCCCN)NC(=O)[C@H](CSSC[C@H](NC(=O)[C@H]([C@@H](C)O)NC(=O)[C@H](Cc4c[nH]c5ccccc45)NC1=O)C(=O)N[C@@H](CC(=O)O)C(=O)N[C@@H](CO)C(=O)N[C@@H](CCCCN)C(=O)N[C@@H](CCCNC(=N)N)C(=O)N[C@@H](C)C(=O)N3)NC(=O)[C@H](CCC(=O)O)NC(=O)[C@H](CC(C)C)NC(=O)CNC(=O)[C@H](CCC(=O)O)NC2=O` [compound 243], for which the IC50 is 0.52 µM at hNav1.7, greater than 5 µM at hNav1.5, greater than 5 µM at hNav1.4 and greater than 5 µM on hNav1.3.
